Substitutions are numbered along the chain they refer to. “Also recorded” adds a separate entry of the source. Like-named read-outs stand apart in the source and are kept apart here.
Assays:
CocE [1] = target: T1, CocE (Rhodococcus sp., UniProt Q9L9D7); test: Effect of DTT on decay of CocE activity at 37° C.; type: biochemical, Rhodococcus sp. MB 1; conditions: DTT 10 mM
T1 construct: 6xHis (C); made in house; host or cells: E. coli BL-21 Gold (DE3), pET-22b(+)
T1 sequence (Q9L9D7 1-574): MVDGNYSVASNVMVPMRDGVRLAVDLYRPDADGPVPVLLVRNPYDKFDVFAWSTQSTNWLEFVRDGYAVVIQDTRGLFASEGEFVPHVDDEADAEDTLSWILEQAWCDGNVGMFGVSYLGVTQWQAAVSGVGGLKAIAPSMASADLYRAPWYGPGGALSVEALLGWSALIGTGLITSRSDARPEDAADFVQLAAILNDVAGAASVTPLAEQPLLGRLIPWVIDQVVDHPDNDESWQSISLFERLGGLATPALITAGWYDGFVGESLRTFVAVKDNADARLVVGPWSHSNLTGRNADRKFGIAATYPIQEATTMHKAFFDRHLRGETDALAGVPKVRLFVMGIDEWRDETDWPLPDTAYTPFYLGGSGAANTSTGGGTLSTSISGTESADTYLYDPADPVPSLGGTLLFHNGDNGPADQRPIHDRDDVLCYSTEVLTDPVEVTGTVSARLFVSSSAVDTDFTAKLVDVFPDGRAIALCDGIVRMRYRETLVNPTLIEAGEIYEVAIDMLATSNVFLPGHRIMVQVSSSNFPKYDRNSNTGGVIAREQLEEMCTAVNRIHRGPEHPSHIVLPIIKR
Method: (§1) In vitro kinetic assays. […] Initial rates were then used to determine Michaelis-Menten parameters. To assess thermal stability, enzyme preparations were preincubated at 37° C. for various lengths of time, prior to measurement of residual activities (Table 1 and FIG. 23).

CocE [2] = target: T1, CocE; type: biochemical, Rhodococcus sp. MB 1
Method: Analysis of CocE action on cocaine cleavage is performed by utilizing the spectroscopic properties of cocaine, which maximally absorbs light at a 240 nm wavelength. CocE activity is measured by monitoring for a decrease in signal at A240, using various concentrations of cocaine, and determining the initial rate of the decrease. From these values the Vmax of the enzyme can be determined. By pre-incubating the enzyme at 37° C. for various times before monitoring for activity, the half life of CocE at 37° C. can be calculated.
The initial rates (of decay) were determined by following the change in the intrinsic absorbance of cocaine at 240 nm (6700 M^1 cm^1)(Xie et al., 1999) using a SpectraMax Plus 384 UV plate reader (Molecular Devices, Sunnyvale, Calif.) using SOFTmax Pro software (Version 3.1.2). The reaction was initiated by adding 100 μL of a 2× enzyme solution (100 mM phosphate buffer, pH 7.4 and 300 mM NaCl) to 100 μL of a 2× cocaine solution (50 μg/mL enzyme, 100 mM Phosphate Buffer, pH 7.4 and 300 mM NaCl). All assays were performed with 100 μM DTT unless indicated otherwise. Final cocaine concentrations were as follows: 125, 62.5, 31.25, 15.63, 7.81, 3.91, 1.95, and 0.977 μM. Vmax and Km values were calculated using Prism (GraphPad Software, San Diego). For stability measurements, wild type and mutant enzymes were diluted to 2× concentration and incubated at 37° C. for the times indicated. At the end of each time point, an aliquot was removed and kinetic behavior was observed as outlined above.
as §1

CocE mutant L169K = target: T2, CocE mutant L169K (Rhodococcus sp., UniProt Q9L9D7, L169K); test: Circular dichroism melting of L169K in the presence of phenylboronic acid; type: physicochemical, Rhodococcus sp. MB 1
T2 construct: 6xHis (C); made in house; host or cells: E. coli BL-21 Gold (DE3), pET-22b(+)
T2 sequence (Q9L9D7 1-574 L169K): T1 sequence (Q9L9D7 1-574) with L169K
Method: CD analysis of another CocE mutant, L169K, established a ˜65° C. melting temperature alone, and ˜85° C. melting temperature in the presence of phenylboronic acid (FIG. 18), i.e. phenylboronic acid conferred an additional 20° C. melting to the already high original melting temperature for L169K.

WT CocE = target: T3, WT CocE (Rhodococcus sp., UniProt Q9L9D7); conditions: for melting temperature of WT CocE in presence of compound: excess benzoic acid, 5× molarity phenylboronic acid, 6031818
T3 sequence (Q9L9D7 1-574): T1 sequence (Q9L9D7 1-574)
Method: Further characterization of the stability of wild type (WT) CocE and thermostable mutants was performed through circular dichroism, which detects small changes in protein conformation and structure. Analysis by repeated CD measurements at increasing temperatures allows analysis of the thermodynamics and melting temperature (TM) of the protein, so long as the melting is reversible (i.e. the protein resumes it's original conformation upon cooling). […] However CD is still of value in determining the temperature to unfolding.

CocE WT = target: T4, CocE WT (Rhodococcus sp., UniProt Q9L9D7); test: Inhibition of CocE WT aggregate formation, non-denaturing gel, 1 hour at 37° C.; set-up: species or system Rhodococcus sp. MB 1; conditions: read-out: 50% stabilization concentration
T4 construct: 6xHis (C); made in house; host or cells: E. coli BL-21 Gold (DE3), pET-22b(+)
T4 sequence (Q9L9D7 1-574): T1 sequence (Q9L9D7 1-574)
From the text: To further study CocE stabilization with small molecules, other inhibitors of the CocE cleavage reaction were considered.

CocE [3] = target: T1, CocE; test: Screen for stabilization of CocE: 1 hour at 37° C., then 4-nitrophenyl acetate cleavage; type: biochemical, Rhodococcus sp. MB 1; conditions: forty compounds tested
Method: However all of these small molecules inhibited enzyme activity to certain degrees. It was evaluated whether there might exist a small molecule that could prevent CocE aggregation, without inhibiting enzyme activity. Such a molecule could be used as a stabilizer in vitro, e.g., during enzyme preparation, and in vivo. An assay was designed to screen a library of 20,000 small molecules for stabilization of CocE. In that assay, the enzyme is mixed with the compounds in a 96-well plate format, and then incubated at 37° C. for one hour. […] After 37° C. incubation, the enzyme/compound mixtures are tested for the ability to cleave 4-nitrophenyl acetate (FIG. 8). Only compounds stabilized would be able to cleave after this incubation period.
Forty compounds were first tested. The compounds were assayed in duplicate with appropriate controls. A duplicate plate (without enzyme) was performed as a negative control, to check for compounds able to cause an increase in 400 nm absorbance in the absence of CocE. […] Some were able to do this in the absence of CocE. These were discarded as false positives.
FIG. 9 is a plot of the initial rate of 4-nitrophenyl acetate cleavage for all compounds, after the background “no enzyme” cleavage was subtracted. […]

CocE [4] = target: T1, CocE; type: biochemical, Rhodococcus sp. MB 1; remark: listed apart in the source
Method: CocE is also able to cleave another substrate, 4-nitrophenyl acetate (FIG. 3). Cleavage is monitored by detection of the appearance of the 4-nitrophenol reaction product, which absorbs at 400 nm.
Further spectrophotometric analysis of cocaine stabilization was performed, by analyzing the ability of CocE to cleave 4-nitrophenyl acetate, after preincubation at 37° C. for various times, in the presence of various concentrations of cocaine. […] However, preincubation of CocE at the higher concentrations for various times at 37° C. indicated the enzyme was stabilized enough to be able to cleave the 4-nitrophenyl substrate (FIG. 5).

| SMILES | effect on decay / τinact of wt-CocE (CocE [1]) | Ki (CocE [2]; cocaine hydrolysis, mixed competitive and non-competitive) [µM] | IC50 (CocE [2]; wt-CocE) [µM] | additional melting conferred to L169K (CocE mutant L169K) [°C] | melting temperature of L169K in presence of compound (CocE mutant L169K) [°C] | melting temperature higher than the T172R mutant (WT CocE; WT CocE with compound) | melting temperature of WT CocE in presence of compound (WT CocE) [°C] | EC50 (CocE WT) [µM] | effectiveness in stabilization screen (CocE [3]) | inhibition of 4-nitrophenyl acetate cleavage (CocE [4]) [µM] | inhibition of 4-nitrophenyl acetate cleavage (CocE [4]; cocaine: 62.5 and 125 μM, benzoic acid: higher concentrations) | inhibition of cocaine cleavage (CocE [2]) |
| --- | --- | --- | --- | --- | --- | --- | --- | --- | --- | --- | --- | --- |
| O[C@@H](CS)[C@@H](O)CS [DTT] | shortens; also recorded: accelerate the decay | ~380 | ~390 | – | – | – | – | – | – | – | – | – |
| OB(O)c1ccccc1 [Phenylboronic acid, phenylboronic acid] | – | – | – | 20 | ~85 | more than 30 degrees | 73 | ~0.2 | – | – | – | – |
| CCOc1ccccc1N(CC(=O)N1CCCCC1)S(=O)(=O)c1ccccc1 [compound 6031818] | – | – | – | – | – | – | ~42 | – | most effective | 16 | weak inhibitor | does not inhibit |

From patent US9526786B2, “Thermostabilization of proteins” (The Trustee of Columbia University in the City of New York, priority 2007, dated 2016)
